Laboratory results as given in patent US20120035219A1, “Compound for the Treatment of Tuberculosis” (ASTRAZENECA AB, priority 2009, published 2012).
In brackets after ≈: the same amount, converted by molar mass.

Columns and labels:
[1] = Pharmacokinetic parameters in mouse; type: in vivo, BALB/c mice
Protocol: BALB/c mice (8-10 week old) were dosed with the compound in an appropriate vehicle at specified doses as a single dose at a dose volume of 10 mL/Kg. The dose was administered either orally or parentally. Blood samples were collected at various time points ranging from 0.08 h to 50 h post dosing and plasma harvested by acceptable methods like precipitation or extraction. The concentration of the compound in plasma was determined by standard analytical instruments like HPLC and/or LC-MS.
(§1) PK analyses of the plasma concentration-time relationships were performed with WinNonLin software (or any other suitable software program). A noncompartmental analysis program was used to calculate the PK parameters, such as the maximum concentration of drug in plasma (Cmax), time to Cmax(tmax), elimination rate constant, elimination half-life, and AUC from time zero to infinity (AUC0-inf)
(§2) The compounds were dosed to animals at various doses (not exceeding 25 mg/kg) and the concentration of the compound at various time points was estimated.

[2] = test system: Mtu H37Rv (ATCC 27294); experiment: Minimum bactericidal concentration (MBC), plating on 7H10 agar; type: cell-based; settings: Mycobacterium tuberculosis; concentration giving less than 50 colonies
[3] = in vitro; settings: mouse
[4] = test system: Mtu (tubercle bacilli) lung infection; experiment: In vivo dose-response, aerosol infection model, 4 wk efficacy; settings: BALB/c mice, oral once daily, 6 days a week for 4 weeks
[5] = test system: Mtu H37Rv (ATCC 27294); experiment: MIC testing, Microplate Alamar Blue Assay; type: cell-based; settings: Mycobacterium tuberculosis
[6] = Pharmacokinetic parameters in rat; type: in vivo; settings: plasma; Rat (20-25 mg/kg)
Protocol: as §1, §2

[7] = test system: Mtu in bone marrow derived macrophages from BALB/c mice; experiment: Bone marrow derived macrophages (BMDM) intracellular infection model; type: cell-based, Mycobacterium tuberculosis; settings: for BMDM (log Redn @ 8 μg/mL): 10 days drug exposure, CFU
[8] = Pharmacokinetic parameters in dog; type: in vivo; settings: plasma; Dog (12.5-15 mg/kg)
Protocol: as §1, §2

[9] = cited from earlier work
[10] = cited from earlier work; remark: listed apart in the source
[11] = compared with Linezolid; cited from earlier work
[12] = cited from earlier work; remark: listed apart in the source
[13] = test system: M. tuberculosis; settings: given orally or parenterally to experimental animals; cited from earlier work
[14] = PPB (fraction free), mouse; settings: plasma
[15] = test system: mycobacteria; settings: cited from earlier work
[16] = test system: slow growing mycobacteria; settings: cited from earlier work
[17] = BALB/c, plasma, Mouse (10 mg/kg)
[18] = mouse, at the minimum effective dose

SMILES	half-life [1, 17]	fAUC/MIC [1, 18]	MBC [2]	Minimum Effective Dose in a 4 wk efficacy model [4]	MIC [5]	half-life [6]	BMDM (log Redn @ 8 μg/mL) [7]	half-life [8]	antimycobacterial activities in the murine model [15]	further results
O=C([C@@H](O)CO)N1CC=C(c2c(F)cc(N3C[C@H](COc4ccon4)OC3=O)cc2F)CC1 [AZD2563, (5R)-3-[4-[1-[(2S)-2,3-dihydroxypropanoyl]-3,6-dihydro-2H-pyridin-4-yl]-3,5-difluoro-phenyl]-5-(isoxazol-3-yloxymethyl)oxazolidin-2-one]	1.3 h	54.14	2 µg/mL (≈ 4.3 µM)	125 mg/kg	0.5 µg/mL (≈ 1.07 µM)	4 to 6 h	1.3 log	10 h	–	AUC ([1]; BALB/c, mouse, in vivo): 150000 ng·h/mL; fAUC ([1]; BALB/c, mouse, in vivo): 27.07; AUC ([1]; BALB/c, mouse, in vivo, 10 mg/kg): 20300 ng·h/mL; fraction unbound [3]: 0.18; bactericidal activity in the intracellular infection model (BMDM) as compared to Linezolid ([7]; compared to Linezolid): greater bactericidal activity
CC(=O)NC[C@H]1CN(c2ccc(-c3ccc(-c4nnnn4C)nc3)c(F)c2)C(=O)O1 [DA-7867]	–	–	–	–	–	–	–	–	–	in vitro efficacy [9]: good in vitro; tolerability in rat toxicology studies [10]: poorly tolerated; in vivo efficacy [11]: better in vivo efficacy than Linezolid
CC(=O)NC[C@H]1CN(c2ccc(C(C)=O)cc2)C(=O)O1 [DuP-721]	–	–	–	–	–	–	–	–	–	toxicity in animal models [12]: lethal toxicity; activity against M. tuberculosis [13]: good activity
CC(=O)NC[C@H]1CN(c2ccc(N3CCOCC3)c(F)c2)C(=O)O1 [Linezolid, N—[(S)-3-(3-Fluoro-4-morpholin-4-yl-phenyl)-2-oxo-oxazolidin-5-ylmethyl]-acetamide]	1 h	390.24	4 µg/mL (≈ 11.9 µM)	250 mg/kg	0.5 µg/mL (≈ 1.48 µM)	1.3 to 3 h	−0.05 log	4 h	promising antimycobacterial activities	AUC ([1]; BALB/c, plasma, oral, mouse, at the minimum effective dose, read-out: AUC): 279000 ng·h/mL; AUC ([1]; BALB/c, plasma, Mouse (10 mg/kg), read-out: AUC): 7300 ng·h/mL; fAUC ([1]; mouse, at the minimum effective dose, AUC x fraction free): 195.12; AUC [6]: 41600 ng·h/mL; fraction unbound [14]: 0.7; AUC [8]: 42000 ng·h/mL
CC(=O)NC[C@H]1CN(c2ccc(N3CCSCC3)c(F)c2)C(=O)O1 [PNU-100480]	–	–	–	–	–	–	–	–	promising antimycobacterial activities	–
CC(=O)NC[C@H]1CN(c2ccc(N3CCN(Cc4ccc([N+](=O)[O-])o4)CC3)c(F)c2)C(=O)O1 [RBx 7644]	–	–	–	–	–	–	–	–	–	antimycobacterial activity [16]: modest antimycobacterial activity
